Measurements reported in paper PMC11928319 (Nature Plants, 2025).
Where no end group is shown, it is not given here.

Test system: filter-sterile supernatant of D. japonica MF79
Assay: Peptide quantification by mass spectrometry after incubation in cell-free supernatant of D. japonica MF79
Assay type: in vitro ADME, Dyella japonica MF79
Details: for peptide degradation in culture supernatant of wild-type D. japonica MF79 / peptide depletion in supernatant of the D. japonica MF79 gspD mutant: 1 µM peptide, 1 h, filter-sterile supernatant, XVM2 (OD600 = 0.6), LC-MS; for Log10(total_area_MS1) / percent_rel_axenic: incubation 1h; for Log10(total_area_MS1): MS1 precursor area; for percent_rel_axenic: peptide relative to axenic
Method: Elicitors were also supplemented into the medium prior to solidification at a final concentration of 1 µM. The flg22 ([…]) and AtPep1 ([…]) peptides were synthesized by EZbiolab. elf18^R179 (Ac-[…]) and elf18 (Ac-[…]) were synthesized by GenScript and EZbiolab, respectively. […] Bacteria were pelleted by centrifugation (11,600 g, 2 min), and the supernatant was sterile-filtered using filter units with MF-Millipore membrane (0.22 µm; Millex). The supernatant was incubated in boiling water for 30 min for heat treatment. Then, 25 ml of 1× MS with 20 g l^−1 Bacto Agar was mixed with 25 ml of supernatant prior to medium solidification and poured into square petri dishes. Sterilized seeds were placed on solidified agar in square petri dishes and vertically incubated for 14 days.
Bacterial supernatants were prepared as described in ‘Agar-based cultivation of axenic plants and co-cultivation with bacteria, bacterial supernatants and elicitors’. Here, additionally, the peptides dRGF1 (DYSNPGHHP-Hyp-RHN) and PSY1 (D-Y(SO3H)-[…]-Hyp-Hyp-S) synthesized by Scilight Peptide were incubated for 1 h with 1 µM of peptides in a plant cultivation light chamber (day-light condition; see ‘Plant cultivation conditions’), and the samples were frozen at −20 °C until further processing. For the investigation of AtPep1 degradation, the AtPep1 peptide was first modified by acetylation (six to seven times). To this end, 100-µl aliquots of peptides were treated with 10 µl of NHS acetate solution (1 M NHS acetate in 50% ACN/PBS) and incubated for 30 min with shaking. The reaction was quenched by the addition of 100 µl of 100 mM Tris-HCl (pH 8.5) and incubated for 10 min. For comparison of the non-acetylated peptides with the above-described modified AtPep1 peptides, aliquots of the non-acetylated peptides were processed as described above, but without the modifying NHS reaction. To this end, 100-µl aliquots of the sample were mixed with 100 µl of PBS buffer (137 mM NaCl, 2.7 mM KCl, 10 mM Na2HPO4, 1.8 mM KH2PO4; pH 7.4). The samples were then further diluted with 100 µl of 100 mM Tris-HCl (pH 8.5) and incubated for 10 min. All samples were acidified with 5 µl of TFA and desalted using StageTips with C18 Empore disk membranes (3M)[109]. The samples were dried in a vacuum evaporator and dissolved in 10 µl of 2% ACN (0.1% TFA for analysis).
The samples were analysed using an EASY-nLC 1200 (Thermo Fisher) coupled to a QExactive Plus mass spectrometer (Thermo Fisher). Peptides were separated on 16-cm frit-less silica emitters (New Objective, 75 µm inner diameter), packed in-house with reversed-phase ReproSil-Pur C18 AQ 1.9 µm resin (Dr. Maisch). Peptides were loaded on the column and eluted for 50 min using a segmented linear gradient of 5% to 95% solvent B (0 min, 5% B; 0–5 min, 15% B; 5–35 min, 50% B; 35–45 min, 95% B; 45–50 min, 95% B) (solvent A: 0% ACN, 0.1% FA; solvent B: 80% ACN, 0.1% FA) at a flow rate of 300 nl min^−1. Mass spectra were acquired in data-dependent acquisition mode with a TOP10 method. Mass spectrometry spectra were acquired in the Orbitrap analyser with a mass range of 300–1,500 m/z at a resolution of 70,000 full width at half maximum (FWHM) and a target value of 3 × 10^6 ions. Precursors were selected with an isolation window of 1.3 m/z. Higher-energy collision dissociation (HCD) fragmentation was performed at a normalized collision energy of 25. Tandem mass spectrometry (MS/MS) spectra were acquired with a target value of 5 × 10^5 ions at a resolution of 17,500 FWHM, a maximum injection time of 85 ms and a fixed first mass of 100 m/z. Peptides with a charge of 1 or greater than 6 or with an unassigned charge state were excluded from fragmentation for MS/MS; dynamic exclusion for 20 s prevented repeated selection of precursors. The raw data were analysed on the MS1 level using Skyline (https://skyline.ms)[110], and the results were filtered for the respective intact peptides, or the acetylated version in the case of AtPep1. […]

[1] = MF79 gspD mutant supernatant, XVM2 medium, replicate 1
[2] = MF79 gspD mutant supernatant, XVM2 medium, replicate 2
[3] = MF79 gspD mutant supernatant, XVM2 medium, replicate 3
[4] = MF79 supernatant, XVM2 medium, replicate 1
[5] = MF79 supernatant, XVM2 medium, replicate 2
[6] = MF79 supernatant, XVM2 medium, replicate 3
[7] = axenic XVM2 medium control, replicate 2
[8] = axenic XVM2 medium control, replicate 3
[9] = axenic XVM2 medium control, replicate 1

| Substance | peptide degradation in culture supernatant of wild-type D. japonica MF79 | peptide depletion in supernatant of the D. japonica MF79 gspD mutant | Log10(total_area_MS1) [1] | Log10(total_area_MS1) [2] | Log10(total_area_MS1) [3] | percent_rel_axenic [1] [%] | percent_rel_axenic [2] [%] | percent_rel_axenic [3] [%] | Log10(total_area_MS1) [4] | Log10(total_area_MS1) [5] | Log10(total_area_MS1) [6] | percent_rel_axenic [4] [%] | percent_rel_axenic [5] [%] | percent_rel_axenic [6] [%] | Log10(total_area_MS1) [7] | Log10(total_area_MS1) [8] | percent_rel_axenic [7] [%] | percent_rel_axenic [8] [%] | Log10(total_area_MS1) [9] | percent_rel_axenic [9] [%] |
| --- | --- | --- | --- | --- | --- | --- | --- | --- | --- | --- | --- | --- | --- | --- | --- | --- | --- | --- | --- | --- |
| ATKVKAKQRGKEKVSSGRPGQHN [AtPep1] | similarly effective in degrading | depleted | 0 | 0 | 0 | 0 | 0 | 0 | 7.596 | 7.38 | 6.998 | 0.3481 | 0.2117 | 0.0878 | 10.0991 | 9.961 | 110.888 | 80.7256 |  |  |
| Ac-SKEKFERTKPHVNVGTIG [elf18] | similarly effective in degrading | depleted | 7.363 | 7.327 | 7.195 | 0.1126 | 0.1036 | 0.0764 | 8.052 | 7.627 | 7.56 | 0.5496 | 0.2067 | 0.1772 | 10.2259 | 10.2716 | 82.063 | 91.1647 | 10.4148 | 126.772 |
| QRLSTGSRINSAKDDAAGLQIA [flg22] | similarly effective in degrading | depleted | 0 | 0 | 0 | 0 | 0 | 0 | 0 | 0 | 0 | 0 | 0 | 0 | 7.393 | 7.844 | 53.5357 | 151.5 | 7.6416 | 94.9639 |
